Tests used:
[1] = target: CMPK2^Lys282 protein; experiment: MST binding to CMPK2 Lys282 mutant; parameters: species or system human; details: Lys282 mutated
Description: Human CMPK2 and K265, K282 and K320 mutated CMPK2 cDNA were cloned and inserted into the pTT5 vector, and the constructed plasmid was amplified by the DH5α strain. The C‐terminus of the cDNA was fused with a 6× His tag, and the N‐terminus was truncated by 22 amino acids (Figure 1B–F and Supporting Information Figure S5A,B). When the free‐style 293‐F cells reached the proper density, approximately 1 mg of expression plasmid was premixed with 3 mg polyethylenimine in UltraFectin medium and incubated prior to transfection. This mixture was then added to the appropriate amount of fresh cell culture medium, incubated for 30 min and collected after 48 h.
The MST assay is an emerging technique used to quantitatively elucidate binding. The binding parameter between CMPK2 and DP was measured using MST on a Monolith NT.115 system (Germany). CMPK2 was fluorescently labeled with the Monolith NT Protein Labeling Kit RED (L018, NanoTemper Technologies GmbH, Munich, Germany) according to the manufacturer’s instructions. The Monolith NT.115 system was used with Monolith NT.115 standard capillaries (M0-K022). MST assay buffer was used to dilute the labeled CMPK2 to 2 μM. […] The binding and dissociation constants (Kd) were evaluated and calculated using M0-Affinity analysis software version 2.1.3 (Nano Temper Technologies) for the ligand.

[2] = test system: BMDMs; experiment: CCK-8 cytotoxicity assay; type: cell-based, mouse; details: DP 5–80 μM
Description: To detect the viability of cells, a cell counting kit 8 (CCK-8) assay was performed. BMDMs were seeded at 1×10^6 cells/ml in a 96-well plate and incubated overnight at 37℃. Then, we treated the cells with different concentrations of DP (0-160 μM) for 24 h, added CCK-8 reagent to the cell medium and incubated the cells for 1 h. Then, the optical density was measured at a wavelength of 450 nm.

[3] = test system: siCmpk2/dsCmpk2-transduced BMDMs; experiment: Inflammasome readouts in siCmpk2- or dsCmpk2-transduced BMDMs; type: cell-based, mouse
Description: BMDMs were plated in 6-well plates at a density of 1.5×10^6 cells per well and then transfected with 150 nM siRNA using Lipofectamine RNAiMAX according to the manufacturer’s guidelines (Invitrogen). siRNA sequences were chemically synthesized by GenePharma, and the negative control siRNA was also from GenePharma. The siRNA sequences were as follows: sicmpk2 5’-[…]-3’.
Full-length human CMPK2 was cloned and inserted into a pcDNA3.1(+) vector (Invitrogen) for expression in mouse BMDMs. An HA tag was placed after the C-terminal of CMPK2. Mouse BMDMs were transfected using Fugene HD Transfection Reagent (Promega) with the CMPK2 plasmid. BMDMs were plated in 6-well plates at a density of 1.5×10^6 cells per well and then transfected with 6 μg dsDNA using FuGENE according to the manufacturer’s guidelines (Promega).

[4] = test system: LPS-induced septic shock in C57BL/6 mice; experiment: LPS-induced septic shock model; type: in vivo, mouse
Description: Sepsis was induced by intraperitoneal injection of 8- to 12-week-old gender-matched wild-type mice with LPS (E. coli O111:B4, Sigma-Aldrich) at 20 mg per kg body weight. Mouse survival was monitored every 1 h after injection for a total of 72 h. In a separate experiment, mice were treated with the same dose of LPS, and immune sera were collected 6 h post injection. Then, the abdominal cavity was washed with PBS. The levels of IL-1β and TNF-α in serum and peritoneal lavage ﬂuid were determined by ELISA. Then, the livers, kidneys and lungs were immediately removed and washed in ice-cold PBS. They were fixed with 4% paraformaldehyde, which was used for hematoxylin-eosin (H&E), Masson staining and Sirius red staining.

[5] = target: T1, CMPK2 (Homo sapiens, UniProt Q5EBM0); experiment: Ultrafiltration-affinity mass spectrometry screening (FC, CMPK2 vs BSA); type: binding; parameters: the N‐terminus was truncated by 22 amino acids; 6xHis (C); made in house; host or cells: FreeStyle 293-F cells (pTT5 vector)
T1 sequence (Q5EBM0 22-449): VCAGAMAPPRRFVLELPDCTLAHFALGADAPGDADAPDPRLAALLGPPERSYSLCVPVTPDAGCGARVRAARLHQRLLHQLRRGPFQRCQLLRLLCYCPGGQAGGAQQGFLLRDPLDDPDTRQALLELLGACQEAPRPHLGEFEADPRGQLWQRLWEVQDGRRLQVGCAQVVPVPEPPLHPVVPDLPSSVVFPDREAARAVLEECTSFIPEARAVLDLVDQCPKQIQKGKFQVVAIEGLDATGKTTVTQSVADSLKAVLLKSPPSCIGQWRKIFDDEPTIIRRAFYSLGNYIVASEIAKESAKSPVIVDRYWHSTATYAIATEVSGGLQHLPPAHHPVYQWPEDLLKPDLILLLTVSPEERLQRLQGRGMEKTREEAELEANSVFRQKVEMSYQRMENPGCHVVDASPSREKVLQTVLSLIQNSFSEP
Description: The purified kinase CMPK2 was incubated with the six cocktails for 30 min at 37°C in a suitable buffer solution. In the compound cocktail, each compound concentration was 1 μM, and the concentration of the kinase CMPK2 was set at 5 μM. Each of the above incubation solutions was added to a 0.5 mL 10 kDa ultrafiltration tube (Amicon μltra‐0.5 10K Centrifugal Filter Devices, Millipore), and four experimental replicates were conducted for each CMPK2 and BSA pair. The 10 kDa ultrafiltration tube was centrifuged with the incubation solution at 13 000 × g for 20 min at 4°C. Centrifugation was stopped when the solution volume was approximately 100 μL, and then the mixture was washed five times with cold ammonium acetate (150 mM, pH 7.5). For affinity selection, 100 μL of the mixture was transferred after centrifugation and rinsed into a new eppendorf tube. […] The protein precipitate was discarded and the liquid was concentrated with a N2 stream. The residue was re‐dissolved in 50% methanol before injection. BSA samples were processed in a manner parallel to that of CMPK2 samples.
Sample measurement was detected by using an UHPLC instrument (Shimadzu) combined with a Triple TOF 5600^+ MS (SCIEX). Chromatographic separation was conducted with an Acquity UPLC BEH C18 column (1.7 μm, 2.1 × 100 mm, Waters) at a temperature maintained at 40°C and a flow rate of 0.3 mL/min, with mobile phases of water–0.1% formic acid (A) and acetonitrile (B). The linear gradient elution profile was as follows: 0−2 min, 5% B; 2−12 min, 5−30% B; 12−25 min, 30−90% B; 25−30 min, 90% B; and re‐equilibration for 5 min. Subsequently, the gradient was recovered to the initial conditions at the final 1 min. Whether it was a test sample or a quality control (QC) sample, each injection volume was 5 μL.
Briefly, the chromatographic peaks of each bound ligand were extracted using PeakView with identification criteria of precise mass measurement deviation and retention time tolerance of 5 ppm and 0.1 min, respectively. The MS response of each ligand was represented with the integrated peak area extracted by the corresponding extract ion chromatogram. The effective hits were selected on the basis of fold change (FC) value ≥ 2, p value < .05 and cyclic voltammetry (CV) ≤ 30% and were identified as candidate ligands of CMPK2. By extracting the m/z of individual standards from the acquired MS/MS spectrum, the decimal point of RT was used to distinguish the ambiguous compound peaks in the cocktails.
The experimental samples were injected into a UHPLC‐Q‐TOF‐MS system. First, total ion chromatograms (TIC) reflected the general overview of all samples (Supporting Information Figure S2A). […] Among the groups, each sample with a CV more than 30% was considered an abnormal sample and was not considered in the subsequent statistical analysis. In addition, the p value of each sample between the groups was calculated by MetaboAnalyst 5.0, and the significance of differences was determined. In the ultrafiltration‐affinity mass spectrometry profiling, we calculated FC, which is defined as the ratio of the MS response between the compound detected in the CMPK2 and BSA incubation system (Supporting Information Figure S2C,D). […] To select small‐molecule ligands with strong affinity, we determined the screening criteria to be FC ≥ 2. Affinity MS analysis generated a set of raw data, and the compounds that met the pre‐judgment criteria (FC ≥ 2, p < .05) were selected as compound hits (Supporting Information Figure S2).

[6] = myeloid tissue, western blot, DP 40 mg/kg
[7] = serum and peritoneal lavage fluid, DP 2 h pre-treatment, 6 h LPS

Compound: COc1c2ccc(-c3ccccc3)oc-2cc(=O)c1C [compound 73, Dracohodin perochlorate]
- binding (Kd by MST) [1]: no binding
- cell viability [2]: no significant change
- effect on TNF-α in supernatant ([3]; CMPK2-overexpressing BMDMs): negligible
- inhibitory effect on IL-1β ([3]; CMPK2-overexpressing BMDMs): reversed
- release of TNF-α in supernatant ([3]; WT/siCmpk2 BMDMs, DP 12 or 1 h, ATP/Nigericin): no significant change
- ASC oligomerization ([3]; siCmpk2-transduced BMDMs, different concentrations of DP): not significantly altered
- blood pressure (hypotension) ([4]; BIOPAC System-MP160): could improve hypotension
- heart rate ([4]; BIOPAC System-MP160): no significant difference
- blood pressure changes ([4]; BP-2010A instrument): not captured significant differences
- survival rate ([4]; DP 40 mg/kg given before or after sepsis outbreak): significantly improved
- survival (lethal inflammation) ([4]; DP 10, 20, 40 mg/kg 2 h before LPS 20 mg/kg i.p., 72 h): suppressed the lethal inflammation
- LPS-induced inflammatory infiltration and fibrosis ([4]; liver, lung, kidney histopathology, DP 10, 20, 40 mg/kg): distinctly alleviated
- body weight, body temperature and heart rate ([4]; model group vs drug administration groups): no significant difference
- CMPK2 expression in vivo [4, 6]: markedly blocked
- activated caspase-1 [4, 6]: prevents the increase
- IL-1β production [4, 7]: reduced
- TNF-α production [4, 7]: did not affect
- binding between dUMP and CMPK2 ([5]; affinity mass spectrometry competition, Figure S3C): interfered
- FC Negative ([5]; negative ion mode, ratio of MS response CMPK2 vs BSA): 3.00
- FC Positive ([5]; positive ion mode, ratio of MS response CMPK2 vs BSA): 4.32
